Source: patent publication US12589143B2, “Human anti-PD-L1 peptide vaccines and methods of their use” (priority 2019, dated 2026)
Where no end group is shown, it is not given here.

Test system: D2F2 WT tumor cells
Experiment: D2F2 WT tumor challenge in Balb/c mice
Format: in vivo
Method: Balb/c mice 6-8 weeks old, were immunized with G1 and G2 mice were treated with anti-PD-1 mAb (29F.1A12) (G1) or anti-PD-L1 mAb (10F.9G2) (G2 or with MVF-PD-L1 vaccine constructs [PD-L1(92-110)(G3) PD-L1(130-147)(G4)] prior to tumor challenge. Similarly, G10, G11 and G12 are control groups and were not treated prior to tumor cell challenge. G13, G14 and G15 mice were immunized with 100 ug MVF-HER-2(266-296)+100 ug MVF-HER-2(597-626)+ISA720 per mouse for G13, 100 ug MVF-PD-1 (92-110)+100 ug MVF-HER-2(266-296)+100 ug MVF-HER-2(597-626)+ISA720 per mouse for G14 and 100 ug MVF-PD-L1 (130-147)+100 ug MVF-HER-2(266-296)+100 ug MVF-HER-2(597-626)+ISA720 per mouse for G15. The mice were immunized up to 4 times before tumor challenge. […] All the mice had been monitored at least twice per week, and the tumors were measured with calipers as data indicated.
The tumor volumes were measured by calipers and calculated by formula: (length×width2)/2. […] All the peptides immunized groups of mice are shown with less tumor burden than PBS group and mAbs treated groups as well.
G0, G1 and G2 are control groups, mice in these groups were not treated before tumor cells challenge. Following challenge with D2F2 WT tumor cells, G0 mice were treated with PBS (i.p.) twice per week start from day 2 post challenge served as negative control, G1 and G2 mice were treated with anti-PD-1 mAb (29F.1A12) or anti-PD-L1 mAb (10F.9G2), respectively. Treatment for G1 and G2 mouse groups was also started from day 2 post tumor challenge, with 100 ug administered/mouse twice a week. G1 and G2 served as positive control. […] All the mice had been monitored at least twice per week, and the tumors were measured with calipers as data indicated (FIG. 26).
Mice were immunized with designed peptides vaccines as descripted in FIG. 26, which indicated as 1Y, 2Y, 3Y and 4Y here and with 3 weeks apart. […] And the mice were monitor at least twice per week, and the tumors were measured as shown in the data figures.
The tumor volumes were measured by calipers and calculated by formula: (length×width2)/2. […]

**Q.** What does the source list for “KLLSLIKGVIVHRLEGVEGPSLVTSEHELTCQAEGYPKAE (KLLSLIKGVIVHRLEGVEGPSLVTSEHELTCQAEGYPKAE-NH2) [PD-L1(130)]”?
**A.** mice survival (after day 45 of tumor challenge): about 60%; tumor volume (day 21 and day 28): smaller tumor volume than PBS negative control group and both of mAbs positive control groups
